Compound	melting point
Cc1ccc(N(C)C2CCN(CC(=O)Nc3ccc(NS(C)(=O)=O)cc3)CC2)cc1	128 to 130 °C
COc1cc2ccc(C(=O)CCl)cc2cc1OC	137 to 140 °C
Cc1[nH]c(=O)n(-c2cc(C(=O)OC(C)C)c(Cl)cc2F)c(=O)c1Br	187 to 189 °C
COC(C)n1cc(C2=C(c3cn(C(C)OC)c4ccccc34)C(=O)NC2=O)c2ccccc21 (stereo not drawn)	222 to 224 °C
Cc1cccc2nc3c(cc12)sc1cccc(Cl)c13	143 to 146 °C
O=C(c1ccc(F)cc1)C1CCN(CCCCl)CC1	66.5 to 68.5 °C
Fc1cccc(COc2ccc(Nc3ncnc4cc(C#Cc5ccccn5)sc34)cc2Cl)c1	242 °C
CC(C#Cc1ccc(Oc2cccnc2)o1)N(O)C(N)=O (stereo not drawn)	128 °C
C[C@]12CCC(=O)N[C@@H]1CCc1cc(Sc3cnc4ccccc4c3)ccc12	168 to 170 °C
CC(O)c1cnc2c(-c3cc(-c4ccccc4)cs3)cnn2c1O (stereo not drawn)	262 to 285 °C
CCc1[nH]nc2c1C(=O)c1c(NC(=O)NN3CCN(C)CC3)cccc1-2	244 to 246 °C
CCCCc1c(Cl)nc(NC=O)nc1Cl	82 to 83 °C
CNC(=O)N(C)c1nnc(C(C)(C)CC#N)s1	133 to 135 °C
Cc1cc(C)cc(-n2c(C=CC3CC(O)CC(O)O3)c(C(C)C)c3ccccc3c2=O)c1 (mixture of isomers)	180 to 182 °C
CC1(C)Cc2cc([N+](=O)[O-])cc(O)c2O1	96 to 97 °C
COc1cc(C=CC(=O)c2ccc(O)c(CC(=O)O)c2)cc(OC)c1OC	210 °C
CC#CCOc1cc(-n2nnn(CCC)c2=O)c(Cl)cc1Cl	58 to 60 °C
CC(C(=O)O)c1ccc(Oc2ccc(F)cc2F)cc1 (stereo not drawn)	105 to 106 °C
CN(C(=O)Cc1ccc(Cl)c(Cl)c1)[C@@H]1Cc2ccccc2C[C@H]1N1CCCC1 (relative stereo)	161 to 164 °C
CC(C)(C)S(=O)(=O)CCOCCn1ccc2ncnc(Nc3ccc(Oc4cccc(C(F)(F)F)c4)c(Cl)c3)c21	79.5 to 81.5 °C
COC(=O)C(Cc1ccc(OCCn2c(=O)sc3cc(Cc4ccc(-c5ccccc5)cc4)ccc32)cc1)C(=O)OC	122 °C

Compound	melting point
O=C(Nc1cccc(C(F)(F)F)c1)Nc1c(C(=O)O)[nH]c(=O)[nH]c1=O	> 300 °C
COC(=O)C[C@@H](CI)O[Si](c1ccccc1)(c1ccccc1)C(C)(C)C	84 to 88 °C
CCOC(=O)c1ccc(OCCC2CN(c3nnc(Br)s3)CCO2)cc1 (stereo not drawn)	131 °C
COc1ccc(OCCCCCC(=O)O)c(C=O)c1	104 to 106 °C
CN(CCNC(=O)NCCCOc1cccc(CN2CCCCC2)c1)CCC(c1ccc(F)cc1)c1ccccn1 (stereo not drawn)	111 to 115 °C
O=C(OCc1ccccc1)c1ccc(OC(=O)c2ccccc2C(=O)Oc2ccc(C(=O)OCc3ccccc3)cc2)cc1	100 to 103 °C
Cc1ccccc1COc1cccnc1NC(=S)Nc1ccccc1	150 to 151 °C
CCCC12CCC(=O)C=C1c1c(cc(OCC(=O)O)c(Cl)c1Cl)CC2 (stereo not drawn)	193 to 194 °C
c1ccc2c(c1)OCCO2	117 to 118 °C
Cc1nn(-c2ccccn2)c2[nH]c3ccc(S(C)=O)cc3c(=O)c12 (stereo not drawn)	268 to 269 °C
O=C(O)c1cc(N2C(=O)C(c3ccccc3)=C(c3ccccc3)C2=O)ccc1O	249 to 250 °C
CCc1cc(CC)c(N)cc1N	49 to 51 °C
COc1cc(Nc2nccc(-c3ccc(N4CCCCC4CO)nc3)n2)cc(OC)c1OC (stereo not drawn)	93 °C
CSc1ncc(CO)c(Nc2ccccc2)n1	142 to 143 °C
O=C(O)CC1=CSCCS1	82 °C
N#Cc1c[nH]cc1-c1ccc(F)c(Cl)c1F	218 to 219 °C
CCCCCC(=O)OCc1nccc2[nH]c(=O)ccc12	158 to 159 °C
CCOC(=O)C(=O)Nc1cc(N2CCOCC2)ccc1OC	95 to 97 °C
Cc1c(C=NO)c2cc(F)ccc2n1-c1ccc(OCc2ccccc2)cc1	183 to 185 °C
COC(=O)c1cccc(COc2ccc(S(=O)(=O)c3ccc(C)nc3Nc3c(C)cc(C)cc3C)cc2)c1	148 to 150 °C
Clc1ccc2c(C3CCN(CC4Cc5ccccc5C4)CC3)c[nH]c2c1Cl	141 to 142 °C

Compound	melting point
O=C(Nc1nc(C(F)(F)C(F)(F)F)c(CO)s1)c1cc(C(F)(F)F)cc(C(F)(F)F)c1	164 to 165 °C
O=c1nc(-c2cccc(S(=O)Cc3ccccc3)n2)sc2ccccc12 (stereo not drawn)	208 to 210 °C
CN1CCN(C2=NC(=O)C(=Cc3cccc(-c4cc(F)c(O)c(C56CC7CC(CC(C7)C5)C6)c4)c3)S2)CC1	226 to 228 °C
CC(=O)Oc1ccc2c(c1)C(=O)N(C(C)=O)C(C(Cl)(Cl)Cl)O2 (stereo not drawn)	138 to 140 °C
COc1c(F)c(F)cc(C(N)=O)c1F	130 to 133 °C
Cn1cc2c(C3C(=O)Nc4ccc(Br)cc43)nc(Cl)nc2n1 (stereo not drawn)	> 300 °C
Cc1sc2c(c1Br)C(=O)N(CCCCCl)CCC2	78 to 80 °C
C=CCCC(Oc1ccc(C(=O)Cl)cc1)C1CCCCC1 (stereo not drawn)	22 to 25 °C
CC(C)(C)OC(=O)N[C@H]1CC[C@@H](NC(=O)OC(C)(C)C)CC1	144 °C
CC(C)OC(=O)c1cc(-n2c(=O)[nH]c3c(c2=O)CCC3)c(Cl)cc1Br	208 to 210 °C
CC(C)OC(=O)c1cnc(C(=O)O)cn1	149 to 152 °C
Cc1c(C(N)=O)sc2cncc(Oc3ccc(Cl)cc3)c12	174 to 175 °C
O=C(O)C(=O)Nc1cc(-c2ccc(-c3cccc4c3oc3ccccc34)cc2)cn(Cc2ccccc2)c1=O	220 to 223 °C
COc1ccc(N2CCN(C)CC2)c2c1OCC(C(=O)Nc1ccc(N3CCOCC3)cc1)C2 (stereo not drawn)	202 to 204 °C
C=C(C)C(=O)Nc1ccc(NC(=O)C(=C)C)cc1	254 to 257 °C
N#Cc1nc(Cl)c(Cl)[nH]1	187 to 189 °C
COc1ccc(NC=O)c(C=O)c1	125 to 127 °C
CS(=O)(=O)OC[C@H]1CN(c2ccc(C3=CCSCC3)c(F)c2)C(=O)O1	138 to 141 °C
CCOC(=O)c1cn(CC)c2nc3cc(F)c(F)cc3cc2c1=O	270 °C

The remaining lines, values ahead:

melting point	Compound
117 to 119 °C	CCN(CC)C(=O)c1ccc2ccccc2c1-c1cccc(COC(C)(C)C)c1
217 to 221 °C	COC(=O)c1ccccc1S(=O)(=O)NC(=O)Nc1ncc(Cl)cn1
174 to 175 °C	Cn1c(Cl)c(C(=O)C(=O)N2CCCC2)c2ccc(Cl)cc21
186 to 189 °C	CC1(C)NC(=O)N(CC(CS(=O)(=O)c2ccc(-c3cccc(CC#N)c3)cc2)N(O)C=O)C1=O (stereo not drawn)
116 to 118 °C	CCCCOc1cc(CCS(=O)(=O)NC(=O)OCC(C)(C)C)n(Cc2ccc(Cl)cc2Cl)n1
172 to 174 °C	O=C1OC(=O)[C@H](Cc2ccccc2)C[C@H]1Cc1ccccc1
182 to 184 °C	CCCNC(=O)C(C)Cc1ccc2c(c1)c(Cc1ccc(C(=O)NS(=O)(=O)c3ccccc3C)cc1OC)cn2C(C)C (stereo not drawn)
124 to 126 °C	CCCc1nc2ccc(C#N)cc2n1Cc1ccccc1Cl
250 °C	CCCCc1nc2c(C(=O)O)cccc2n1Cc1ccc(C(=O)O)cc1
104 to 106 °C	CC(=O)N1CCN=C1CC(c1ccccc1)c1ccccc1
86 to 87 °C	CCOC(=O)c1c(CN(CC)CC)nc2sc3c(c2c1-c1ccc(OC)c(OC)c1)CCN(C(=O)c1ccccc1)C3
177 to 180 °C	Clc1ccccc1-c1ccc2nncn2c1
80 to 81 °C	COC(=O)SC1C2=C(CCCC2)C(=O)N1c1ccc(Cl)cc1F (stereo not drawn)
245 °C	Nc1cc(C(=O)O)cc(S(N)(=O)=O)c1Nc1ccc2ccccc2c1
198 to 199 °C	CCCCCCCNC(=O)Nc1ccccc1C(=O)NC1CCN(C2c3ccccc3COc3ccc(Br)cc32)CC1 (stereo not drawn)
162 to 164 °C	Cc1ccc(Cl)cc1NC(=S)NCC(N)=O
75 to 76 °C	Cc1noc(=O)c2ccc(NC(=O)C(C)(O)CC3(c4cccc(C(F)(F)F)c4)CC3)cc12 (stereo not drawn)
> 300 °C	O=c1nc(-c2ccccc2F)c2cc(Cl)ccc2[nH]1
209 °C	CCN1CCc2ccc(Nc3ncc(Cl)c(N[C@@H]4c5ccccc5C[C@@H]4O)n3)cc2CC1

melting point	Compound
231 to 232 °C	O=S(=O)(O)CCCCN1CCN(C(c2ccc(F)cc2)c2ccccn2)CC1 (stereo not drawn)
90 to 92 °C	CC(C)S(=O)(=O)NCc1ccc2ccn(C3CCN(CCc4ccc(F)cc4)CC3)c2c1
156 to 158 °C	COc1ccc(C(=O)Nc2ccccc2)cc1
192 to 194 °C	O=C1Cc2cc(C(O)CN3CCC(O)(c4ccccc4)CC3)ccc2N1 (stereo not drawn)
65 to 85 °C	COc1cc2c(cc1Nc1ncc(Cl)c(Nc3ccccc3OC)n1)CCN(CC(=O)N(C)C)CC2
162 to 163 °C	CC(C)(CO)NC(=O)Cc1ccc2c(c1)C(=O)c1sccc1CO2
136 to 137 °C	Cc1ccccc1C(CCC(=O)O)Oc1cc(OCc2cccc(CCC(=O)O)c2)ccc1C#N (racemic)
220 to 222 °C	O=C(O)Cc1cn(S(=O)(=O)c2c(Cl)nc3sccn23)c2ccccc12
86 to 89 °C	CS(=O)(=O)c1ccc(C(CC2CCCC2)C(=O)Nc2ccccn2)cc1C(F)(F)F (stereo not drawn)
104 to 106 °C	O=C1CNC(c2cccc(Cc3ccccc3)c2)=NN1CC(F)(F)F
164 to 165 °C	CN1CCc2c(sc(N)c2C(=O)c2ccccc2)C1
184 to 185 °C	CCS(=O)(=O)CCC(=O)NNC(=O)N1Cc2cc(Cl)ccc2Oc2ccccc21
160 to 162 °C	COc1ccc(S(=O)(=O)C2(CCCC#Cc3ccc(Cl)cc3)CC(=O)NC2=O)cc1 (stereo not drawn)
138 to 139 °C	CCCCC1OC(=O)c2cc(NC(C)=O)ccc21 (stereo not drawn)
256 to 260 °C	Nc1cc(=O)n(Cc2ccccc2)c(=O)n1-c1cccc([N+](=O)[O-])c1
84 to 86 °C	Cc1noc(NS(=O)(=O)c2ccccc2Br)c1Br
162 °C	CN(C)CCC1Cc2ccccc2C(C)(O)c2ccccc21 (stereo not drawn)
66 to 69 °C	CCC1(CCCN2CCc3sccc3C2)C(=O)Nc2ccc(Cl)cc21 (stereo not drawn)
